Test results as given in PubChem BioAssay (NCI).
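96-well plates; 48 h exposure; 5 concentrations. Endpoints by linear interpolation between flanking doses. Not reached: highest tested concentration assigned. TGI: concentration producing complete growth inhibition.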

Experiments:
Assay in all cases: DTP human tumour cell line panel, 48 h
UACC-62 melanoma = tested on: UACC-62 melanoma
MDA-MB-435 = tested on: MDA-MB-435
ACHN renal = tested on: ACHN renal
LOX IMVI melanoma = tested on: LOX IMVI melanoma
SF-295 CNS = tested on: SF-295 CNS
RPMI-8226 leukemia = tested on: RPMI-8226 leukemia
OVCAR-5 ovarian = tested on: OVCAR-5 ovarian
PC-3 prostate = tested on: PC-3 prostate
UO-31 renal = tested on: UO-31 renal
MCF7 breast = tested on: MCF7 breast
OVCAR-3 ovarian = tested on: OVCAR-3 ovarian
A549 NSCLC = tested on: A549 NSCLC
OVCAR-8 ovarian = tested on: OVCAR-8 ovarian
NCI-H23 lung = tested on: NCI-H23 lung
HT29 colon = tested on: HT29 colon
OVCAR-4 ovarian = tested on: OVCAR-4 ovarian
UACC-257 melanoma = tested on: UACC-257 melanoma
NCI/ADR-RES ovarian = tested on: NCI/ADR-RES ovarian
CCRF-CEM leukemia = tested on: CCRF-CEM leukemia
SN12C renal = tested on: SN12C renal
KM12 colon = tested on: KM12 colon
MOLT-4 leukemia = tested on: MOLT-4 leukemia
U251 CNS = tested on: U251 CNS
MDA-N = tested on: MDA-N
T-47D breast = tested on: T-47D breast
SW-620 colon = tested on: SW-620 colon
SF-268 CNS = tested on: SF-268 CNS
NCI-H460 lung = tested on: NCI-H460 lung
HS 578T breast = tested on: HS 578T breast
CAKI-1 renal = tested on: CAKI-1 renal
DU-145 prostate = tested on: DU-145 prostate
786-0 renal = tested on: 786-0 renal
COLO 205 colon = tested on: COLO 205 colon
MDA-MB-231 breast = tested on: MDA-MB-231 breast
EKVX NSCLC = tested on: EKVX NSCLC
SNB-75 CNS = tested on: SNB-75 CNS
SR leukemia = tested on: SR leukemia
M14 melanoma = tested on: M14 melanoma
SK-OV-3 ovarian = tested on: SK-OV-3 ovarian
SK-MEL-28 melanoma = tested on: SK-MEL-28 melanoma
BT-549 breast = tested on: BT-549 breast
HCT-116 colon = tested on: HCT-116 colon
HL-60(TB) leukemia = tested on: HL-60(TB) leukemia
HOP-62 NSCLC = tested on: HOP-62 NSCLC
HCT-15 colon = tested on: HCT-15 colon
K-562 leukemia = tested on: K-562 leukemia
MALME-3M melanoma = tested on: MALME-3M melanoma
TK-10 renal = tested on: TK-10 renal
SF-539 CNS = tested on: SF-539 CNS
SK-MEL-5 melanoma = tested on: SK-MEL-5 melanoma
HOP-92 NSCLC = tested on: HOP-92 NSCLC
RXF 393 renal = tested on: RXF 393 renal
NCI-H522 lung = tested on: NCI-H522 lung
A498 renal = tested on: A498 renal
SNB-19 CNS = tested on: SNB-19 CNS
SK-MEL-2 melanoma = tested on: SK-MEL-2 melanoma
IGROV1 ovarian = tested on: IGROV1 ovarian
LXFL 529 NSCLC = tested on: LXFL 529 NSCLC
M19-MEL melanoma = tested on: M19-MEL melanoma
NCI-H226 lung = tested on: NCI-H226 lung
DMS 273 small cell lung = tested on: DMS 273 small cell lung
DLD-1 colon = tested on: DLD-1 colon
KM20L2 colon = tested on: KM20L2 colon

Measured: TGI

CCOc1cc(-c2nc3ccccn3c2/N=C/c2cc([N+](=O)[O-])cc([N+](=O)[O-])c2O)ccc1O
not listed: LXFL 529 NSCLC | M19-MEL melanoma | NCI-H226 lung | DMS 273 small cell lung | DLD-1 colon | KM20L2 colon
> 100 µM: all other assays above

N#CC(c1ccc(Cl)cc1)c1c(O)nc2ccc(=N)cc-2n1O (centres undefined)
not listed: MDA-MB-435 | OVCAR-5 ovarian | PC-3 prostate | UO-31 renal | MCF7 breast | OVCAR-8 ovarian | NCI-H23 lung | OVCAR-4 ovarian | NCI/ADR-RES ovarian | SN12C renal | U251 CNS | MDA-N | T-47D breast | NCI-H460 lung | HS 578T breast | DU-145 prostate | COLO 205 colon | MDA-MB-231 breast | BT-549 breast | HOP-62 NSCLC | HCT-15 colon | MALME-3M melanoma | RXF 393 renal | A498 renal | SNB-19 CNS | SK-MEL-2 melanoma
> 100 µM: all other assays above
